Measured values reported in US20060135618A1, “Medicine comprising a thiourea for use as depigmenting agent or anti-mutagenic and anti-carcinogenic agent” (priority 2002, published 2006).

How the values were obtained:
[1] = system: melanin-producing human melanocyte-keratinocyte co-cultures; test: Depigmenting effect: melanin extraction from pigmented epidermis co-cultures; format: cell-based; conditions: for Inhibition % of the melanin in the co-cultures: 2.8 mM in culture medium for 21 days; for inhibition at 2800 µM: read-out: Inhibition % of the melanin in the co-cultures
Experimental: The culture media are also supplied by this manufacturer.
Extraction is carried out on a pool of two culture wells, which are homogenized in 0.45 ml of sodium dodecyl sulphate (SDS) at 1% containing 0.05 mM of EDTA and 10 mM of Tris HCl (amino-2-(hydroxymethyl)-2-propanediol-1,3), pH 6.8. Add 20 μl of proteinase K at 5 mg/ml to each homogenate. Digest over night at 45° C. Then add a further 20 μl of proteinase K and continue incubation for 4 hours. Then add 50 μl of 0.5 M solution of sodium carbonate and 10 μl of a 30% solution of hydrogen peroxide. Maintain the specimens at 80° C. for 30 min and then cool them. Extract the specimens with 100 μl of a chloroform-methanol mixture (2:1, v/v). After centrifugation at 10,000 g for 10 min, measure the optical density of the supernatant at 405 nm. The products are compared in Table 1 below (the results are expressed as percentage inhibition of the melanin in the co-cultures): […]

[2] = system: Salmonella typhimurium TA 104 recN2-4; test: Vitotox test, antimutagenic effect against UVB; format: cell-based; conditions: cultures irradiated for 20 s, 254 nm, without MMS
[3] = system: Salmonella typhimurium TA 104 recN2-4; test: Vitotox test, antimutagenic effect against MMS (methylmethanesulphonate); format: cell-based
Experimental: After incubation of the bacteria with a genotoxic product, the recN promoter is derepressed and the lux operon is expressed: emission of light, the said emission being proportional to the genotoxicity of the product. Some products act directly on the production of light or increase the metabolism of the bacteria, creating false positives. […] The same strain is used as cytotoxicity control (false negatives).
• In order to test the antimutagenic effect against genotoxic molecules, a genotoxic molecule, methylmethanesulphonate (MMS), is used, which is compared against the genotoxicity of a mixture of reference mutagenic molecules, 4-nitroquinoline oxide and benzo(a)pyrene. MMS is placed alone or mixed with bis MsoBT at increasing concentrations and the emissions of light are compared. […] The test product is used with or without metabolic activation (fraction S9: microsomal homogenate containing cytochrome P450: […] final). • The kinetics of emission of light, as a function of the genotoxicity and of the cytotoxicity of the product, is measured for 3 hours (measurements every 5 minutes) with a Fluoroskan Ascent FL (bermnoLabsystems). • The products are supplied by the companies Sigma-Aldrich. […]

CNC(=S)NC [Dimethylthiourea, dimethylthiourea, reference compound]
Inhibition % of the melanin in the co-cultures [1]: 36%

O=c1cc(CO)occ1O [Kojic acid, reference compound]
inhibition at 35000 µM ([1]; Homo sapiens, 504 h, 35 mM in culture medium for 21 days): 32%

C[S+]([O-])CCCCNC(=S)NCCCCS(C)(=O)=O (stereo not shown) [MSBMSBT, 1-(5-methanesulphinylbutyl)-3-(5-methanesulphonylbutyl)-thiourea]
inhibition at 2800 µM ([1]; Homo sapiens, 504 h): 18%

C[S+]([O-])CCCCNC(=S)NCCCC[S+](C)[O-] (stereo not shown) [bis MSiBT, 1,3-bis-(5-methanesulphinylbutyl)-thiourea]
Inhibition % of the melanin in the co-cultures [1]: 7.5%

CS(=O)(=O)CCCCNC(=S)NCCCCS(C)(=O)=O [bis MSoBT, 1,3-bis-(5-methanesulphonylbutyl) thiourea]
melting point: 142 °C | inhibitory concentration 50 of the mutagenic effect induced by UVB [2]: 25 ppm | inhibition at 2800 µM ([1]; Homo sapiens, 504 h): 29.6% | necessary concentration for approx. 30% melanin inhibition, times lower than for kojic acid ([1]; relative to kojic acid): 25 times | inhibitory concentration 50 of the mutagenic effect of MMS ([3]; with S9): 20 ppm | inhibitory concentration 50 of the mutagenic effect of MMS ([3]; without S9): 17 ppm
